In patent US6946121B2, “Composition in particular cosmetic or dermatological composition, containing oligosaccharides and preparation method and cosmetic treatment method” (Laboratories G Pharm, priority 1999, dated 2005):
Entries after “also recorded” stand apart in the source; their conditions may differ.

Tested on: human basophils
Assay: antidegranulating or antiactivating activity on human basophils by flow cytometry (anti-IgE stimulation, CD63 label)
Format: cell-based
Conditions: in vitro, same experimental conditions as the oligosaccharides
Experimental: In order to test the antidegranulating or antiactivating activity of the oligosaccharides on human basophils by flow cytometry, leukocyte suspensions from different individuals selected as being good at responding to anti-IgE were used to isolate the leukocytes, by simple sedimentation at 1 g. These leukocytes are preincubated for 30 minutes with successive dilutions from 10 to 0.01 mg/ml of the test product. The basophils are then stimulated with a target concentration of a human anti-IgE labeled with a mixture of anti-IgE FITC and anti-CD63PE antibodies, CD63 being an activation label for human basophils. The percentages of activation or of inhibition are then calculated by flow cytometry. The biological activity of the oligosaccharides was thus evaluated.
The same biological tests were performed on structural analogs such as raffinose or oligosaccharides comprising an α bond between a galactose unit and another saccharide unit such as in melibiose.
Tests were thus undertaken. […] The percentage of inhibition was calculated by repeating the experiment three times.

## OC[C@H]1O[C@H](OCC2O[C@@H](O)[C@H](O)[C@@H](O)[C@@H]2O)[C@H](O)[C@@H](O)[C@H]1O (stereo partly shown) [melibiose]
  activity on leukocytes / mastocytes: not active; also recorded: absolutely no activity
